Measurements: patent publication US8367873B2, “Phenyl-substituted bicyclooctane-1,3-dione derivatives” (Bayer Cropscience AG, priority 2008, dated 2013)

Experiments:
Assay type in all cases: in vivo
Alopecurus myosuroides [1] = test: Herbicidal pre-emergence action; details: pre-emergence method, 80 g/ha, greenhouse, visual assessment vs untreated controls
Procedure, shortened: (§1)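 Seeds sown in sandy loam and covered with soil; WP-formulated compounds applied as aqueous suspension (600 l/ha water, 0.2% wetting agent) to the soil surface at various rates. Greenhouse-grown; emergence damage scored visually after three weeks versus untreated controls (0% = like control, 100% = plants dead).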

Echinocloa crus-galli [2] = test: Herbicidal pre-emergence action; details: pre-emergence method, 80 g/ha, greenhouse, visual assessment vs untreated controls
Procedure, shortened: as §1

Lolium multiflorum [3] = test: Herbicidal pre-emergence action; details: pre-emergence method, 80 g/ha, greenhouse, visual assessment vs untreated controls
Procedure, shortened: as §1

Setaria viridis [4] = test: Herbicidal pre-emergence action; details: pre-emergence method, 80 g/ha, greenhouse, visual assessment vs untreated controls
Procedure, shortened: as §1

Alopecurus myosuroides [5] = test: Herbicidal post-emergence action; details: post-emergence method, 80 g/ha
Procedure, shortened: (§2)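 Greenhouse plants in sandy loam sprayed at the one-leaf stage, 2-3 weeks after sowing, with WP-formulated compound at varied rates in 600 l/ha water plus 0.2% wetting agent. Damage scored visually after about three weeks as percent effect versus untreated controls (100% = dead).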

Echinocloa crus-galli [6] = test: Herbicidal post-emergence action; details: post-emergence method, 80 g/ha
Procedure, shortened: as §2

Lolium multiflorum [7] = test: Herbicidal post-emergence action; details: post-emergence method, 80 g/ha
Procedure, shortened: as §2

Setaria viridis [8] = test: Herbicidal post-emergence action; details: post-emergence method, 80 g/ha
Procedure, shortened: as §2

[9] = system: monocotylidonous and dicotylidonous weed and crop plants; test: Herbicidal pre-emergence action (other test plants); details: pre-emergence method, 80 g/ha, greenhouse, visual assessment vs untreated controls
Description: Seeds of monocotylidonous and dicotylidonous weed and crop plants are placed in sandy loam in wood fibre pots and covered with soil. The test compounds, formulated in the form of wettable powders (WP), are then, as an aqueous suspension with a water application rate of 600 l/ha (converted), with 0.2% of wetting agent added, applied to the surface of the covering soil in different amounts.
After the treatment, the pots are placed in a greenhouse and kept under good growth conditions for the test plants. The visual assessment of the emergence damage on the test plants is carried out after a trial period of three weeks by comparison with the untreated controls (herbicidal effect in percent: 100% effect=the plants have died, 0% effect=like control plants).

[10] = system: monocotylidonous and dicotylidonous weed and crop plants; test: Herbicidal post-emergence action (other test plants); details: post-emergence method, 80 g/ha
Procedure, shortened: as §2

Compound	herbicidal effect ALOMY (Alopecurus myosuroides [1]) [%]	herbicidal effect ECHCG (Echinocloa crus-galli [2]) [%]	herbicidal effect LOLMU (Lolium multiflorum [3]) [%]	herbicidal effect SETVI (Setaria viridis [4]) [%]	herbicidal effect against ALOMY (Alopecurus myosuroides) (Alopecurus myosuroides [5]) [%]	herbicidal effect against ECHCG (Echinochloa crus-galli) (Echinocloa crus-galli [6]) [%]	herbicidal effect against LOLMU (Lolium multiflorum) (Lolium multiflorum [7]) [%]	herbicidal effect against SETVI (Setaria viridis) (Setaria viridis [8]) [%]	herbicidal effect AVEFA [9] [%]	herbicidal effect against AVEFA (Avena fatua) [10] [%]
CCc1cc(C)cc(CC)c1C1=C(O)C2CC3(COC(CC)O3)CC2C1=O (stereo not shown) [I-a-6]	100	60	100	60	90	100	100	90	60	70
C=C1CC2C(=O)C(c3c(C)cc(C)cc3CC)=C(OC(=O)OCC)C2C1 (racemic) [I-c-76]	80	100	90	90	10	100	90	100	20	0
CCc1cc(C)cc(CC)c1C1=C(OC(=O)C(C)(C)C)C2CC3(COC(C)(C)O3)CC2C1=O (stereo not shown) [I-b-8]	100	90	100	90	90	80	100	60	80	70
CCc1cc(C)cc(C)c1C1=C(OC(=O)C(C)(C)C)C2CC3(CC2C1=O)OCCCCO3 (stereo not shown) [I-b-78]	100	100	100	60	100	100	100	70	60	70
CCc1cc(C)cc(CC)c1C1=C(O)[C@H]2CC3(C[C@H]2C1=O)OC(C)(C)C(C)(C)O3 (relative stereo) [I-a-19]	90	0	100	20	80	90	100	50	20	0
CCOC(=O)OC1=C(c2c(CC)cc(C)cc2CC)C(=O)C2CC(=NOCC3CC3)CC12 (stereo not shown) [I-c-40]	80	0	80	40	100	100	100	100	60	0
CCc1cc(C)cc(CC)c1C1=C(OC(=O)OC(C)C)C2CC3(COC(C)(C)O3)CC2C1=O (stereo not shown) [I-c-2]	90	40	100	60	90	40	100	40	50	40
CCOC(=O)OC1=C(c2c(C)cc(C)cc2CC)C(=O)C2CC3(COC(C)(C)O3)CC12 (mixture of isomers) [I-c-80]	100	100	100	60	90	100	100	90	60	70
COc1cc(C)cc(C)c1C1=C([O-])C2CC3(CC2C1=O)OCCO3.[Na+] (stereo not shown) [I-f-6]	60	70	90	70	100	100	100	100	90	80
Cc1cc(C)c(C2=C([O-])C3CC4(CC3C2=O)OCC=CCO4)c(C)c1.[Na+] (stereo not shown) [I-f-8]	30	0	100	70	100	100	100	100	40	90
CCOC(=O)OC1=C(c2c(CC)cc(C)cc2CC)C(=O)C2CC3(CC12)OCC(C)(C)CO3 (stereo not shown) [I-c-22]	100	100	100	100	100	100	100	100	70	100
C#CC(C)ON=C1CC2C(=O)C(c3c(CC)cc(C)cc3CC)=C(OC(=O)OCC)C2C1 (stereo not shown) [I-c-43]	80	80	80	0	100	100	100	0	40	0
C=C1CC2C(=O)C(c3c(C)cc(C)cc3C)=C(OC(=O)C(C)(C)C)C2C1 (stereo not shown) [I-b-37]	90	70	70	70	0	90	70	90	40	0
